Measurements taken from patent US20260021085A1, “CYCLOALKYL CARBOXYLIC ACID DERIVATIVES AS INHIBITORS OF GLYCOGEN SYNTHASE 1 (GYS1) AND METHODS OF USE THEREOF” (Maze Therapeutics, Inc., priority 2022, published 2026).

Experiments:
[1] = molecular target: hGYS1 enzyme, glycogen synthesis in HeLa cells (Homo sapiens (Human), UniProt P13807); assay: GYS1 cell based assay (glycogen synthesis in HeLa cells, Glucose-glo); details: starved HeLa cells, 24 h incubation; geometric mean of at least 2 assay runs; read-out: Cellular IC50
Text: The GYS1 cell based assay is a bioluminescent assay that quantifies the glucose resulting from glycogen digestion; the quantified glucose is an indirect measure of GYS1 glycogen synthesis. Newly synthesized glycogen is digested using Glucoamylase; the resulting glucose is quantified by using the Glucose-glo assay kit from Promega. Glucose-glo works by coupling glucose oxidation and NADH production with a bioluminescent system that is activated with NADH. Glucose is oxidized by Glucose dehydrogenase and the reaction reduces NAD+ to NADH; NADH activates Reductase which reduces a pro-luciferin Reductase Substrate to luciferin. Luciferin is detected in a luciferase reaction using Ultra-Glo rLuciferase and ATP, and the luminesce produced is proportional to the glucose in the sample. The luminescence is measured as a single point read in a plate reader.
Compounds that inhibit the hGYS1 enzyme and, subsequently, the glycogen synthesis in cells, were tested using assay ready plates (white, clear bottom 384 well plates) in a final DMSO reaction volume of 1% DMSO. Compounds in the assay ready plates were mixed with media with no additives, except for 20 mM glucose prior to cell addition. HeLa cells were starved in media with no additives, except for 1× Glutamax for 24 h. Starved HeLa cells were plated, in a 1:1 ratio to the media in the assay ready plate and incubated for 24 h at 37° C. and 5% CO2. Cells were washed in 1×PBS buffer and lysed in lysis buffer containing 50% 1×PBS and 25% 0.3 N HCl of the final volume in the well or reaction volume; cells were incubated with lysis buffer for 10 minutes and quenched with the remaining 25% of the reaction volume that consisted of 450 mM Tris pH 8.0. Lysates were mixed in a 1:1 ratio with Glucoamylase in 100 mM Sodium Acetate buffer, pH 5.3; the mixture was incubated for 1 h at 37° C. The digested lysate was mixed in a 1:1 ratio with Glucose-glo detection mixture as per vendor recommendations (Luciferase detection buffer, Reductase, Reductase substrate, Glucose dehydrogenase, and NAD) in read-out plates (solid white 384-well plates) and incubated for 1 h at RT. The plates were read using a plate reader with luminescence capabilities. Each compound concentration Relative Luminescence Unit (RLU) was averaged and normalized to the average RLU of the positive and negative controls to obtain a percentage inhibition. The normalized data vs. concentration was plotted; to determine the half-maximal concentration (IC50), the Levenberg-Marquardt algorithm was used to fit a Hill equation to the dose response data.
Unless otherwise specified, IC50 values are reported as the geometric mean of at least 2 assay runs on separate days. […] Unless otherwise specified, IC50 values are reported as the geometric mean of at least two assay runs on separate days. Each run represents the average of a technical replicate, where each compound was assayed twice in the same plate.

human GYS1 = human GYS1 (Homo sapiens (Human), UniProt P13807); assay: GYS1 coupled enzyme assay (PK/LDH); assay type: biochemical; details: recombinant hGYS1/GN1 protein; geometric mean of at least 2 assay runs
Text: The GYS1 coupled enzyme assay is a kinetic biochemical assay that indirectly quantifies the rate of glycogen synthesis by coupling the conversion of GYS1 substrate UDP-glucose into UDP with downstream enzymatic reactions. UDP is released from UDP-glucose as glucose monomers are linked into the growing glycogen strand by GYS1. The coupled assay then proceeds with pyruvate kinase utilizing UDP and phospho (enol) pyruvate (PEP) to form pyruvate. Lactate dehydrogenase then converts pyruvate and NADH into lactate and NAD+. Oxidation of NADH to NAD+ can be measured continuously with a plate reader by quantifying the decrease in NADH absorbance at 340 nm over time.
Compounds that inhibit the hGYS1 enzyme and, subsequently, the downstream conversion of NADH to NAD+, were tested using assay ready plates (black, clear bottom 384 well plates) in a final DMSO reaction volume of 2.5% DMSO. The Assay Buffer contained 50 mM Tris pH 7.5, 2 mM MgCl2, and 100 mM KCl. Fresh stocks of BSA at a final concentration of 0.02% and TCEP at 1 mM were added before splitting buffer into hGYS1 buffer and substrate buffer. To the hGYS1 buffer, rabbit liver glycogen was added at a final concentration of 0.2% glycogen. Glucose-6-Phosphate was added at 1 mM, recombinant hGYS1/GN1 protein was added at 50 nM to the substrate buffer, phosphoenolpyruvate (PEP) was added at 2 mM, UDP-Glucose was added at 0.8 mM, NADH) was added at 0.6 mM, and Pyruvate Kinase/Lactate Dehydrogenase was added at 20 units/mL. The reaction was initiated by mixing hGYS1 buffer and substrate buffer at a 1:1 ratio. Both buffers were plated using a liquid dispensing device with hGYS1 buffer plated first followed by the substrate buffer. Plates were spun briefly to eliminate air bubbles and are immediately read in continuous mode at an absorbance of 340 nm, for 10 time points in one-minute increments, for a total of 10 minutes. The slope from these 10 time points was normalized to the positive and negative control wells.
Unless otherwise specified, IC50 values are reported as the geometric mean of at least 2 assay runs on separate days. Each run represents the average of a technical replicate, where each compound was assayed twice in the same plate.

Chain of hGYS1 enzyme, glycogen synthesis in HeLa cells (P13807 whole entry): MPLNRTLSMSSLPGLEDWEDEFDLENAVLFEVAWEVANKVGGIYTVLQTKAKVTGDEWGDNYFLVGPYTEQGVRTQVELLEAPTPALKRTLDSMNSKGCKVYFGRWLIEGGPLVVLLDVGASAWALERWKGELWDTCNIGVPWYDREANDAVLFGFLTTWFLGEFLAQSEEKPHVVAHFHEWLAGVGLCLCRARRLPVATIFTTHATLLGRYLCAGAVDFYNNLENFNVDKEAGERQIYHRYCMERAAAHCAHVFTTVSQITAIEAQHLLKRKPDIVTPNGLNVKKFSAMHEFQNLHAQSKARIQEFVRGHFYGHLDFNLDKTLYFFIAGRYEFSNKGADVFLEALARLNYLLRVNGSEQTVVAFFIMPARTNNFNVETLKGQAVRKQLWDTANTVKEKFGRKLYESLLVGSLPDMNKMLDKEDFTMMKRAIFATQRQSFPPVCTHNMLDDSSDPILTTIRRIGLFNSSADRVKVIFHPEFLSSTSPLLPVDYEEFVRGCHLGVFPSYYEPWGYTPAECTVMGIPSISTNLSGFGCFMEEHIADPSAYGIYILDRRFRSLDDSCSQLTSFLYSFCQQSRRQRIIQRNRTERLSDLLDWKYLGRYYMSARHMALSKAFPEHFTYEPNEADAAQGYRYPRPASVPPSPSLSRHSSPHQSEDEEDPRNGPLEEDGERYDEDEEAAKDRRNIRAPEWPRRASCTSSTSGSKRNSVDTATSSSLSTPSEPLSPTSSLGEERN
Chain of human GYS1 (P13807 whole entry): as above
Chain of human GYS1 (P46976 whole entry partner): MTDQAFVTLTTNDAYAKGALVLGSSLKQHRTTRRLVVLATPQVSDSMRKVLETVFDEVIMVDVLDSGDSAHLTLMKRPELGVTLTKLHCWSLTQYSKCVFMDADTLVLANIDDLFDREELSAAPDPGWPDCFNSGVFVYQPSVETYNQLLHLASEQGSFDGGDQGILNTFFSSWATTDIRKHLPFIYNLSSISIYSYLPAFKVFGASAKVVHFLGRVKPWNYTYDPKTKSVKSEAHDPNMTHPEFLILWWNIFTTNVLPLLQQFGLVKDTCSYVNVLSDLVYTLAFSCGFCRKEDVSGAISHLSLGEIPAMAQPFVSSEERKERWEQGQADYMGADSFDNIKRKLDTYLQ

SMILES	IC50 [1] [nM]	IC50 (human GYS1) [nM]
CC(C)c1ccc([C@@H](NC(=O)[C@@H]2CCC[C@@H]2C(=O)O)c2cccnc2N)cc1 [Compound 29, (1S,2R)-2-(((R)-(2-aminopyridin-3-yl)(4-isopropylphenyl)methyl)carbamoyl)cyclopentane-1-carboxylic acid]	65600	1520
CC(C)c1ccc([C@@H](NC(=O)[C@@H]2CCC[C@@H]2C(=O)O)c2cccc(-c3ccn[nH]3)c2)nc1F [Compound 4, (1S,2R)-2-(((S)-(3-(1H-pyrazol-5-yl)phenyl)(6-fluoro-5-isopropylpyridin-2-yl)methyl)carbamoyl)cyclopentane-1-carboxylic acid]		178
CC(C)c1ccc([C@@H](NC(=O)[C@@H]2CCC[C@@H]2C(=O)O)c2cccc(-c3ccno3)c2)nc1F [Compound 3, (1S,2R)-2-(((S)-(6-fluoro-5-isopropylpyridin-2-yl)(3-(isoxazol-5-yl)phenyl)methyl)carbamoyl)cyclopentane-1-carboxylic acid]		630
CC(C)c1ccc([C@@H](NC(=O)C2CC(O)CC2C(=O)O)c2ccccc2)cc1 (single isomer, unassigned) [Compound 16, (1S or 1R,2R or 2S,4R or 4S)-4-hydroxy-2-(((S)-(4-isopropylphenyl)(phenyl)methyl)carbamoyl)cyclopentane-1-carboxylic acid]	> 100000	836
CC1(c2ccc([C@@H](NC(=O)[C@@H]3CCC[C@@H]3C(=O)O)c3ccccc3)cc2)CC1 [Compound 14, (1S,2R)-2-(((S)-(4-(1-methylcyclopropyl)phenyl)(phenyl)methyl)carbamoyl)cyclopentane-1-carboxylic acid]	> 60800	1010
CC(C)c1ccc([C@@H](NC(=O)[C@@H]2CCC[C@@H]2C(=O)O)c2cccc3c2[nH]c(=O)n3C)cc1F [Compound 7, (1S,2R)-2-(((R)-(3-fluoro-4-isopropylphenyl)(1-methyl-2-oxo-2,3-dihydro-1H-benzo[d]imidazol-4-yl)methyl)carbamoyl)cyclopentane-1-carboxylic acid]	> 10000	884
CC(C)c1ccc([C@@H](NC(=O)[C@@H]2CCC[C@@H]2C(=O)O)c2ccn[nH]2)cc1 [Compound 32, (1S,2R)-2-(((R)-(4-isopropylphenyl)(1H-pyrazol-5-yl)methyl)carbamoyl)cyclopentane-1-carboxylic acid]	> 100000	2390
O=C(O)[C@H]1CCC[C@H]1C(=O)N[C@@H](c1ccccc1)c1ccc(C2CC2)cn1 [Compound 12, (1S,2R)-2-(((S)-(5-cyclopropylpyridin-2-yl)(phenyl)methyl)carbamoyl)cyclopentane-1-carboxylic acid]	> 65800	1730
O=C(O)[C@H]1CCC[C@H]1C(=O)N[C@@H](c1ccccc1)c1ccc(C2CC2)c(F)n1 [Compound 6, (1S,2R)-2-(((S)-(5-cyclopropyl-6-fluoropyridin-2-yl)(phenyl)methyl)carbamoyl)cyclopentane-1-carboxylic acid]		272
CC(C)c1ccc([C@@H](NC(=O)[C@@H]2CCC[C@@H]2C(=O)O)c2cccc3c2NC(=O)C3)cc1 [Compound 30, (1S,2R)-2-(((R)-(4-isopropylphenyl)(2-oxoindolin-7-yl)methyl)carbamoyl)cyclopentane-1-carboxylic acid]	31300	1610
CC(C)c1ccc([C@@H](NC(=O)[C@@H]2CCC[C@@H]2C(=O)O)c2ccccc2NC(=O)C2CNC2)cc1 [Compound 13, (1S,2R)-2-(((R)-(2-(azetidine-3-carboxamido)phenyl)(4-isopropylphenyl)methyl)carbamoyl)cyclopentane-1-carboxylic acid]	> 68600	2360
CC(C)c1ccc([C@@H](NC(=O)C2CCC(C(=O)O)C2)c2ccccc2)cc1 (single isomer, unassigned) [Compound 33, (1S or 1R,3R or 3S)-3-(((S)-(4-isopropylphenyl)(phenyl)methyl)carbamoyl)cyclopentane-1-carboxylic acid]		3130
CC(C)c1ccc([C@@H](NC(=O)[C@@H]2CCC[C@@H]2C(=O)O)c2cccc(-c3cnco3)c2)nc1F [Compound 2, (1S,2R)-2-(((S)-(6-fluoro-5-isopropylpyridin-2-yl)(3-(oxazol-5-yl)phenyl)methyl)carbamoyl)cyclopentane-1-carboxylic acid]		426
O=C(O)[C@H]1CCC[C@H]1C(=O)N[C@@H](c1ccccc1)c1ccc(C2CC2)cc1 [Compound 38, (1S,2R)-2-(((S)-(4-cyclopropylphenyl)(phenyl)methyl)carbamoyl)cyclopentane-1-carboxylic acid]		1130
CC(C)c1ccc([C@@H](NC(=O)C2CC(F)CC2C(=O)O)c2ccccc2)cc1 (single isomer, unassigned) [Compound 25, (1S or 1R,2R or 2S,4R or 4S)-4-fluoro-2-(((S)-(4-isopropylphenyl)(phenyl)methyl)carbamoyl)cyclopentane-1-carboxylic acid]	24500	1150
CC1(C)CC2(CC([C@@H](NC(=O)C3CCCC3C(=O)O)c3ccccc3)C2)C1 (single isomer, unassigned) [Compound 35, (1S or 1R,2R or 2S)-2-(((R)-(6,6-dimethylspiro[3.3]heptan-2-yl)(phenyl)methyl)carbamoyl)cyclopentane-1-carboxylic acid]		2390
CC(C)c1ccc([C@@H](NC(=O)[C@@H]2CCC[C@@H]2C(=O)O)c2cccc3[nH]c(=O)oc23)cc1 [Compound 9, (1S,2R)-2-(((R)-(4-isopropylphenyl)(2-oxo-2,3-dihydrobenzo[d]oxazol-7-yl)methyl)carbamoyl)cyclopentane-1-carboxylic acid]	> 100000	879
CC(C)c1ccc([C@@H](NC(=O)[C@@H]2CCC[C@@H]2C(=O)O)c2cccc(-c3ccnn3C)c2)nc1F [Compound 1, (1S,2R)-2-(((S)-(6-fluoro-5-isopropylpyridin-2-yl)(3-(1-methyl-1H-pyrazol-5-yl)phenyl)methyl)carbamoyl)cyclopentane-1-carboxylic acid]		1440
CC(C)c1ccc([C@@H](NC(=O)[C@@H]2CCC[C@@H]2C(=O)O)c2ccccc2NC(N)=O)cc1F [Compound 24, (1S,2R)-2-(((R)-(3-fluoro-4-isopropylphenyl)(2-ureidophenyl)methyl)carbamoyl)cyclopentane-1-carboxylic acid]	92000	2820
CC(C)c1ccc([C@@H](NC(=O)[C@@H]2CCC[C@@H]2C(=O)O)c2ccc3cn[nH]c3c2)nc1F [Compound 5, (1S,2R)-2-(((S)-(6-fluoro-5-isopropylpyridin-2-yl)(1H-indazol-6-yl)methyl)carbamoyl)cyclopentane-1-carboxylic acid]		84
